This note sets out measurements from patent publication US20230130102A1, “Na/K-ATPase LIGANDS AND USE THEREOF FOR TREATMENT OF CANCER” (Marshall University Research Corporation, priority 2019, published 2023).

One assay concerns α1 NKA/Src receptor. As to the kind of experiment: multi-step assay of MB5 derivatives (NKA and E-cadherin expression, 3D-spheroid invasion). The class given is cell-based. To be noted: for potency relative to MB5: ability to restore NKA and E-cadherin expression and 3D-spheroid invasion data. From the text: A multi-step assay was further designed to identify which compounds among the MB5 derivatives could be developed as an anti-cancer agent in terms of their potential to stop tumor invasion and growth. This multi-step assay included: (A) an ATPase activity assay- to confirm the binding of derivatives to NKA; (B) an assay to measure inhibition of ouabain-induced ERK activation and NKA endocytosis as well as basal Src/ERK/endocytotic activity in PY-17 cells (NKA/Src inverse agonist); (C) an assay to measure the ability to increase the expression of α1 NKA and E-cadherin level and decrease mesenchymal markers (ZEB1, SNAIL, vimentin) and Myc in cancer cells; (D) a 3D culture to test the anti-invasive and anti-growth potential of spheroids; and (E) an in vivo tumor xenograft model (by transplantation into NOD/SCOD mice). Upon analysis of the results of these experiments, it was believed that some of the MB5 derivative compounds show better or similar properties than MB5 as shown for certain of the compounds in FIGS. 6A-6G. Examples of experiments testing the derivatives are further provided for MIIRMB5 D1 (FIGS. 7A-7B), MIIRMB5 D3 (FIGS. 8A-8C), MIIRMB5 D4 (FIGS. 9A-9C), MIIRMB5 D5 (FIGS. 10A-10C), MIIRMB5 D6 (FIGS. 11A-11C), MIIRMB5 D7 (FIGS. 12A-12B), MIIRMB5 D13 (FIGS. 13A-13C), MIIRMB5 D14 (FIGS. 14A-14C), and MIIRMB5 D15 (FIGS. 15A-15C).

The target of another assay is T1, YFP-tagged α1 NKA (Rattus norvegicus, UniProt P06685).
T1 construct: expressed in transfected cells; host or cells: YFP-α1-TCN cells
As to the kind of experiment: ouabain-induced α1 NKA endocytosis in YFP-α1-TCN cells. The class given is cell-based. To be noted: TCN-YFP α1 cells. As to the method:
It is appreciated that ouabain induces Src/ERK activation (increased protein phosphorylation) of LLC-PK1 cells by binding to α1 NKA and thereby initiates a signaling cascade which results in the endocytosis of the α1 NKA to terminate the signaling.
α1 NKA endocytosis assay. Endocytosis assay was performed as described before.
Characterization of MB5 activity on the NKA receptor function known as the NKA/Src binary receptor mechanism was conducted in a pig kidney epithelial cells (LLC-PK1)-based platform using immunostaining and Western blot analyses. […] The change of NKA conformation that occurs upon binding of agonists such as ouabain, results in the release and activation of the Src kinase domain from the “Naktide” site of NKA CD3, while the other interaction (constitutive) persists between NKA CD2 and the SH2 domain of Src.

Assay [1] addresses T2, α1 NKA/Src receptor complex (Sus scrofa, UniProt P05024).
T2 construct: endogenous in cells; host or cells: LLC-PK1
As to the kind of experiment: ouabain-induced Src/ERK activation in LLC-PK1 cells (immunostaining, Western blot). The class given is cell-based, pig. To be noted: baseline. As to the method: Western blot, Immunoprecipitation and Immunostaining. Cells were grown to 100% confluency and Western blot were performed as described before. Images were quantified with ImageJ software from NIH. Immunoprecipitation studies were performed as described before. α1 NKA immunostaining was performed by growing cells on sterilized coverslips in 6 well tissue culture plates and permeabilization/fixation with ice-cold methanol followed by blocking with 5% horse serum and 0.1% Triton X-100 in 1× Phosphate buffered saline (PBS) for 30 minutes. Coverslips were then stained with an anti-α1 NKA antibody (Millipore, Cat #05-369) at 1:100 dilution in 1% BSA (Bovine Serum Albumin) containing 1×PBS solution for overnight. Next day after three washes, coverslips were stained with Alexa Fluor 488 conjugated anti-mouse secondary antibody (Thermo-Fisher) for 1 hour, washed extensively and then imaged using a fluorescent microscope with GFP filter or confocal microscope (LEICA-DMIRE2). E-cadherin and occludin immunostaining was performed in a similar manner. Phospho-Src, phospho ERK1/2 immunostaining were performed as described before and images were taken with a LEICA DMIRE2 confocal microscope.
Characterization of MB5 activity on the NKA receptor function known as the NKA/Src binary receptor mechanism was conducted in a pig kidney epithelial cells (LLC-PK1)-based platform using immunostaining and Western blot analyses. […] The change of NKA conformation that occurs upon binding of agonists such as ouabain, results in the release and activation of the Src kinase domain from the “Naktide” site of NKA CD3, while the other interaction (constitutive) persists between NKA CD2 and the SH2 domain of Src. […] In LLC-PK1-derived cells with low NKA receptor constitutive activity due to substantial reduction (over 80%) of α1 NKA expression by siRNA (PY17 cells), increased basal Src and ERK activity is observed due to the abnormally high amount of Src kinase that remains in an active conformation. […]
On the technique in general: In western blotting, separated proteins are transferred to a membrane and probed.

Another assay has as its system DU145 derived subclones. As to the kind of experiment: Western blot / immunostaining of EMT markers, Src/FAK activation and proliferation markers in DU145 derived subclones. The format is cell-based, human. To be noted: subclone 2 cells, PP2 treatment (24 hours).

On to `Nc1c(O)ccc2c(=O)c3cccc(O)c3oc12` [MIIRMB5 D4], for which the “potency relative to MB5” value in the assay on α1 NKA/Src receptor is reported as “about 10 fold”.
Regarding `O=c1[nH]c2c(ccc3c(=O)c4cccc(O)c4oc32)o1` [MIIRMB5 D3], the “potency relative to MB5” value in the assay on α1 NKA/Src receptor is on record as “about 10 fold”.
For the compound `C[C@@H]1O[C@@H](O[C@H]2C[C@@H](O)[C@]3(CO)[C@H]4[C@H](O)C[C@]5(C)[C@@H](C6=CC(=O)OC6)CC[C@]5(O)[C@@H]4CC[C@]3(O)C2)[C@H](O)[C@H](O)[C@H]1O` [ouabain, reference compound], the “α1 NKA internalization (endocytosis) by the compound alone” value on YFP-tagged α1 NKA was “induced α1 NKA internalization (endocytosis)”. In assay [1], the “ERK activation / NKA receptor function by the compound alone” value was “activated ERK signal”.
Take `CC(C)(C)n1nc(-c2ccc(Cl)cc2)c2c(N)ncnc21` [PP2, reference compound]: in the assay with DU145 derived subclones, the E-cadherin expression result was “increase in E-cadherin expression”.
In the case of `O=S1(=O)c2cccc(O)c2Oc2c1ccc(O)c2O` [MIIRMB5 D13], the “effective concentration / dosage” value with α1 NKA/Src receptor (NKA and E-cadherin expression, 3D-spheroid invasion) is reported as “about 100 nM”.
